Where “and” joins values, the source holds several entries; their conditions need not be identical. Identical values can stand only once.
What was measured:
[1] = Parallel artificial membrane permeability assay for the gastrointestinal tract (PAMPA-GI); type: in vitro ADME; conditions: for log Pe PAMPA-GI: donor pH 6.8, acceptor pH 7.4, 37 °C, 4 h, n = 9, Pe in cm/s, n.d. = not detected in the acceptor phase; for Papp at 4 h, 100 µM: PAMPA, read-out: log Pe PAMPA-GI (converted)
Description: (§1) The test solutions were prepared with dimethyl sulfoxide (DMSO) at the concentration of 10.0 mM. These were diluted with phosphate buffers (pH = 7.4 for the PAMPA-BBB and pH = 6.8 for the PAMPA-GI) to obtain the donor solutions (297.0 μL buffer + 3.0 μL DMSO solution) and filtered through Phenex-RC 15 mm, 0.2 μm syringe filters (Gen-Lab Ltd., Budapest, Hungary). A parallel artificial membrane permeability assay (PAMPA) system was used to determine the effective permeability (Pe) for the compounds of interest. Each well of the top plate (96-well polycarbonate-based filter donor plates (Multiscreen™-IP, MAIPN4510, pore size 0.45 μm; Merck, Darmstadt, Germany) was coated with 5 μL of porcine polar brain lipid extract (PBLE) solution (16.0 mg PBLE + 8.0 mg cholesterol dissolved in 600.0 μL n-dodecane) for the PAMPA-BBB and with 5 μL of the mixture of 8.0 mg phosphatidylcholine + 4.0 mg cholesterol dissolved in 300.0 μL n-dodecane for PAMPA-GI. Thereafter, 150.0 μL of the filtrate was placed on the membrane. The bottom plate (96-well PTFE acceptor plates (MultiScreen Acceptor plate, MSSACCEPTOR; Millipore, Burlington, MA, USA)), was filled with a 300.0 μL buffer solution (0.01 M PBS buffer, pH = 7.4). The donor and acceptor plates were fit, and then the sandwich system was incubated at 37 °C for 4 h in a Stat-Fax 2200. After the incubation the PAMPA plates were separated and the compound concentrations in the donor (CD(t)) and acceptor (CA(t)) solutions, as well as in the donor solution at the zero time point (CD(0)) were determined by UHPLC-DAD. The effective permeability and the membrane retention in the PAMPA-BBB (1) and the PAMPA GI (2) experiments were calculated by the following equations [12]:(1) Pe=−2.303/A(t−τSS)·(VA·VD/VA+VD)·lg[1−(VA+VD/(1−MR)·VD)×(CA(t)/CD(0))] (2) Pe=−2.303/A(t−τSS))·(1/1+ra)·lg[−ra+(1+ra/1−MR)×(CD(t)/CD(0))] where Pe is the effective permeability coefficient (cm/s), A is the filter area (0.24 cm^2), VD and VA are the volumes in the donor (0.15 cm^3) and acceptor phases (0.30 cm^3), t is the incubation time (s), τSS is the time (s) to reach steady-state (240 s), CD(t) is the concentration (mol/cm^3) of the compound in the donor phase at time t, CD(0) is the concentration (mol/cm^3) of the compound in the donor phase at time 0, MR is the estimated membrane retention factor (the estimated mole fraction of solute lost to the membrane) and ra is the sink asymmetry ratio (gradient-pH-induced), defined as (3) ra=VD/VA×Pe(A→D)/Pe(D→A) (4) MR=1−CD(t)/CD(0)−VA/VDCA(t)/CD(0)
(§2) All experiments were performed in triplicates on three consecutive days (n = 9), caffeine standard was used as positive, while rutin as negative control. ClogP values were calculated by ChemAxon Marvin 22.3.

[2] = Determination of aqueous stability (UHPLC-DAD, 4 h at 37 °C); type: physicochemical; conditions: for Aqueous stability at all three investigated pH values (in words): pH 1.2, 6.8 and 7.4, no notable change in peak areas, no degradation products detected; for Aqueous stability pH = 1.2: compound concentration after 4 h of incubation compared to the initial value: pH 1.2 simulated gastric fluid, n = 3; for Aqueous stability pH = 6.8: compound concentration after 4 h of incubation compared to the initial value: pH 6.8 simulated intestinal fluid; for Aqueous stability pH = 6.8: compound concentration after 4 h of incubation compared to the initial value / Aqueous stability pH = 7.4: compound concentration after 4 h of incubation compared to the initial value: n = 3, * p < 0.05 vs initial; for Aqueous stability pH = 7.4: compound concentration after 4 h of incubation compared to the initial value: pH 7.4 PBS; for Significance of decrease in compound concentration (in words): paired-sample t-test, p < 0.05, pH 1.2, 6.8, 7.4
Description: The aqueous solutions and buffers were prepared as follows: pH = 1.2, 1.0 g NaCl and 3.5 mL HCl dissolved in distilled water to achieve the final volume of 500.0 mL; pH = 6.8, 20.2 g Na2HPO4·7H2O and 3.4 g NaH2PO4·H2O dissolved in distilled water to achieve the final volume of 1000.0 mL, pH adjustment with 0.5 M NaOH or 0.5 M HCl; pH = 7.4, one PBS tablet (phosphate buffered saline, pH 7.4; Sigma Aldrich, St. Louis, MO, USA) dissolved in 200.0 mL of distilled water.
With the aforementioned buffers, 10 mM dimethyl sulfoxide stock solutions of the isolated compounds were diluted 100-fold. […] For degradable compounds, the above-mentioned validated UHPLC-DAD method was used to examine the change in compound concentration. All experiments were performed in triplicates (n = 3).

[3] = Parallel artificial membrane permeability assay for the blood–brain barrier (PAMPA-BBB); type: in vitro ADME; conditions: for log Pe PAMPA-BBB: donor pH 7.4, acceptor pH 7.4, 37 °C, 4 h, n = 9, Pe in cm/s, n.d. = not detected in the acceptor phase
Description: as §1, §2

| log Pe PAMPA-GI [1] | Aqueous stability at all three investigated pH values (in words) [2] | Aqueous stability pH = 1.2: compound concentration after 4 h of incubation compared to the initial value [2] [%] | Aqueous stability pH = 6.8: compound concentration after 4 h of incubation compared to the initial value [2] | Aqueous stability pH = 7.4: compound concentration after 4 h of incubation compared to the initial value [2] | log Pe PAMPA-BBB [3] | Aqueous stability pH = 7.4: compound concentration after 4 h of incubation compared to the initial value ([2]; listed as 2) [%] | Papp at 4 h, 100 µM [1] [×10⁻⁶ cm/s] | Papp at 4 h, 100 µM ([3]; PAMPA, pH 7.4, read-out: log Pe PAMPA-BBB (converted)) [×10⁻⁶ cm/s] | SMILES | Significance of decrease in compound concentration (in words) [2] |
| --- | --- | --- | --- | --- | --- | --- | --- | --- | --- | --- |
| not detected in the acceptor phase | stable | 99.97 ± 1.01 | 102.68 ± 2.45% | 100.92 ± 2.02% | not detected in the acceptor phase |  |  |  | COc1c2cc(c(OC)c1O)Oc1ccc(cc1)CCC(=O)C[C@H](O)/C=C\2 [giffonin F (8), giffonin F] |  |
| not detected in the acceptor phase |  | 98.67 ± 2.43 | 91.22 ± 3.01 * % | 59.93 ± 2.85 * % | not detected in the acceptor phase | 59.93 ± 2.85 |  |  | O=C(CCc1ccc(O)c(O)c1)C[C@H](CCc1ccc(O)c(O)c1)O[C@@H]1OC[C@@H](O)[C@H](O)[C@H]1O [oregonin (2), oregonin] | significant decrease both at pH 6.8 and 7.4 |
| not detected in the acceptor phase |  | 99.63 ± 0.37 |  | 83.80 ± 2.41 * % | not detected in the acceptor phase |  |  |  | O=C(/C=C/CCc1ccc(O)c(O)c1)CCc1ccc(O)c(O)c1 [hirsutenone (3), hirsutenone] | decreased significantly only at pH 7.4 |
| greater than −5.0 |  | 99.45 ± 1.05 | 94.98 ± 2.10% and 94.98 ± 2.10 * % | 90.40 ± 1.52% and 90.40 ± 1.52 * % | > −6.0 |  | 12 | 5.75 | O=C(/C=C/CCc1ccc(O)cc1)CCc1ccc(O)cc1 [platyphyllenone (5), platyphyllenone] | significant decrease both at pH 6.8 and 7.4 |
|  | stable | 102.75 ± 1.09 | 101.51 ± 1.75% | 103.28 ± 1.81% |  |  | 3.24 |  | O=C1CCc2ccc(O)c(c2)-c2cc(ccc2O)C[C@H](O)[C@H](O)[C@H]1O [carpinontriol B (9), carpinontriol B] |  |

| SMILES | log Pe PAMPA-GI [1] | Aqueous stability at all three investigated pH values (in words) [2] | Aqueous stability pH = 1.2: compound concentration after 4 h of incubation compared to the initial value [2] [%] | Aqueous stability pH = 6.8: compound concentration after 4 h of incubation compared to the initial value [2] | Aqueous stability pH = 7.4: compound concentration after 4 h of incubation compared to the initial value [2] | log Pe PAMPA-BBB [3] | Aqueous stability pH = 7.4: compound concentration after 4 h of incubation compared to the initial value ([2]; listed as 2) [%] | Papp at 4 h, 100 µM [1] [×10⁻⁶ cm/s] | Papp at 4 h, 100 µM ([3]; PAMPA, pH 7.4, read-out: log Pe PAMPA-BBB (converted)) [×10⁻⁶ cm/s] | Significance of decrease in compound concentration (in words) [2] |
| --- | --- | --- | --- | --- | --- | --- | --- | --- | --- | --- |
| C[C@@H]1O[C@@H](Oc2c(-c3ccc(O)c(O)c3)oc3cc(O)cc(O)c3c2=O)[C@H](O)[C@H](O)[C@H]1O [quercitrin (10), quercitrin] | not detected in the acceptor phase | stable | 100.91 ± 0.53 | 102.35 ± 1.85% | 100.75 ± 0.96% | not detected in the acceptor phase |  |  |  |  |

Source: paper PMC9231376, “Membrane Permeability and Aqueous Stability Study of Linear and Cyclic Diarylheptanoids from Corylus maxima” (Pharmaceutics, 2022)
